Test results: patent publication US5998596A, “Inhibition of protein kinase activity by aptameric action of oligonucleotides” (The United States of America as represented by the …)

Legend:
cdc-2 kinase = cdc-2 kinase assay with dephosphorylated casein; assay type: biochemical, human; settings: Cerenkov counting of excised gel slices
From the text: (§1) The p210^bcr-abl kinase, src kinase and cdc-2 kinase were immunoprecipitated from K562 cells. The p145^abl kinase was immunoprecipitated from PC3M cells, PDGF receptor kinase from 3T3 cells, and EGF receptor kinase from A431 cells. MAP kinase was utilized as a pure protein and lck kinase was immunoprecipitated from peripheral blood lymphocytes of a normal volunteer.
(§2) Epidermal growth factor receptor (EGFR) was immunoprecipitated with 10 ,g anti-EGFR antibody (clone LA1) and human recombinant epidermal growth factor (both from Upstate Biotechnology Inc., Lake Placid, N.Y.). The assay was performed as described (17) but without removing the EGFR from the protein A-antibody solid support. Instead, epidermal growth factor, at a final concentration of 100 nM, was added to the kinase reaction mixture. Platelet derived growth factor receptor (DGFR) was immunoprecipitated with anti-human type A/type B PDGFR antibody (Upstate Biotechnology Inc.) and immune complex kinase assays performed as referenced (18) except that protein A-Sepharose coated with rabbit anti-mouse immunoglobulin was used instead of formalin-fixed Staphylococcus aureus to bind PDGFR-antibody conjugates. C-src was immunoprecipitated with anti-v-src antibody (Ab-1; Oncogene Science) and assayed as previously described (19) with the addition of enolase as exogenous substrate. […]

p210^bcr-abl kinase [1] = test: Phosphorylation of exogenous substrate enolase by p210bcr-abl; assay type: biochemical, human
Procedure: (§3) Immunoprecipitation kinase assays of p210^bcr-abl p145^abl were performed as described, with modifications (15). Briefly, for p210^bcr-abl, 1 μg of anti-bcr antibody (clone 7C6, Oncogene Science, Uniondale, N.Y.) was added to lysates prepared from 0.5-1×10^6 K562 cells. For p145^abl, 1 μg of anti-c-abl antibody (clone 24-21), which binds to the C-terminal domain of p145^abl, was added to lysates prepared from 5×10^6 PC3M cells. After incubating 1 hour at 4° C., complexes were precipitated by incubating with protein A-Sepharose coated with rabbit anti-mouse immunoglobulin (Cappel Research Products, Durham, N.C.) for 30 minutes. The complexes were then washed as follows: ABL lysis buffer×2, PBS×1, and ABL assay buffer×1 (24 mM imidazole, pH 7.2, 1 mg/ml bovine serum albumin, and 10 mM MnCl). For p145^abl assays ABL assay buffer contained 20 mM MnCl. To access the activity of p210^bcr-abl on substrate phosphorylation, acid inactivated enolase (Sigma Chemical Co., St. Louis, Mo.) was added as described (15).
ODNs were added to kinase reaction buffers not more than 5 minutes prior to the addition of ATP. […]
P210^bcr-abl from K562 cells was immunoprecipitated and kinase assays performed in the presence or absence of 1 μM BCR-AS with varying amounts of enolase present. […] Note that inhibition of autophosphorylation can be readily seen in the absence of enolase (see lanes 5 and 10).

p145^abl kinase = test: Immunoprecipitation kinase assay of p145abl; assay type: biochemical
Procedure: as §1
(§4) Cells were washed in phosphate buffered saline (PBS) and 0.5-5×10^6 cells were solubilized in 1 ml of the specified cell lysis buffers. Unless otherwise stated, all cell lysis buffers contained the following protease inhibitors: 20 μg/ml leupeptin, 1 μg/ml aprotinin, and 1 mM phenylmethylsulfonylfluroide. For p210^bcr-abl and […] immunoprecipitation, cells were lysed with ABL lysis buffer (25 mM imidazole, pH 7.2, 0.5% NP40, 50 mM NaCl, 1 mM Na3 VO4) and lysates were clarified at 14,000 g. 4° C. for 30 minutes. Cell lysis for all other proteins was performed according to the references describing the various immunoprecipitation kinase assays.
Immunoprecipitation kinase assays of p210^bcr-abl p145^abl were performed as described, with modifications (15). Briefly, for p210^bcr-abl, 1 μg of anti-bcr antibody (clone 7C6, Oncogene Science, Uniondale, N.Y.) was added to lysates prepared from 0.5-1×10^6 K562 cells. […]

[2] = system: Epidermal growth factor receptor (EGFR); test: EGFR autophosphorylation immunoprecipitation kinase assay; assay type: biochemical
From the text: as §1, §2

[3] = system: p210^bcr-abl kinase in K562 cells; test: Immunoprecipitation kinase assay of p210bcr-abl from ODN treated K562 cells; assay type: cell-based, human; settings: K562 cells incubated 3 days with 50 μM ODN, washed
Procedure: as §3
(§5) ODNs were added to kinase reaction buffers not more than 5 minutes prior to the addition of ATP. Reactions were initiated by the addition of [γ^-32 P] ATP (3000 Ci/mmole; Amersham Corp., Arlington Heights, Ill.) and quenched by the addition of 5× gel loading buffer and heating to 95° C. Kinase reactions were run for 1-10 minutes at room temperature, except for EGFR, p145^abl, and MAP kinase, which were run at 30° C. The products were then electrophoresed on SDS-polyacrylamide gels: 7% for p210^bcr-abl, EGFR, and PDGFR, 8% for p145^abl, 10% for src, lck, and cdc-2 kinase, and 12% for MAP kinase. Gels were dried and reaction products were visualized by direct autoradiography at -70° C. with Kodak X-OMAT AR film. To determine the inhibitory concentration 50, i.e., the concentration required to inhibit enzyme activity by 50% (IC50) and Ki values, gel slices containing the band of interest were excised and analyzed by Cerenkov counting.
The effects of ODN1 on a cellular system were assessed. […] After 3 days, cells were washed and p210^bcr-abl kinase activity was measured. […] Neither cellular p210^bcr-abl protein content nor cell growth was affected by ODN treatment (data not shown).

p210^bcr-abl kinase [4] = test: Immunoprecipitation kinase assay of p210bcr-abl (autophosphorylation), ODN added to kinase reaction; assay type: biochemical, human; settings: for inhibition of p210^bcr-abl kinase activity in vitro (in words): ODN at 1 μM added to the immunoprecipitated enzyme
Procedure: as §1, §4, §3, §5

MAP kinase = MAP kinase assay with purified enzyme; assay type: biochemical; settings: Cerenkov counting of excised gel slices
From the text: as §1, §2

src kinase = test: Immunoprecipitation kinase assay of c-src with enolase as substrate; assay type: biochemical, human
From the text: as §1, §2

[5] = Cerenkov counting of excised gel slices, mean ± SD
[6] = Cerenkov counting of excised gel slices
[7] = ODN1 concentrations greater than 2 logs above the Ki for p210^bcr-abl

## 5'-GTCCACCATGGCGCGGCCGGC-3' [ODN1] (phosphorothioate caps, further chemistry not given here) [21mer ODN complementary to nucleotides -12 to +9 of the p210bcr-abl mRNA, phosphorothioate capped unless otherwise specified]
cdc-2 kinase
  IC50: > 50 µM
p210^bcr-abl kinase [1]; 1 μM BCR-AS, varying amounts of enolase, three minute reaction
  phosphorylation of enolase by p210^bcr-abl: no effect
p210^bcr-abl kinase [1]; ODN1 concentrations of up to 50 μM
  inhibition of enolase phosphorylation by p210^bcr-abl: no significant inhibition
p145^abl kinase
  sensitivity of p145^abl compared with p210^bcr-abl: equally sensitive
p145^abl kinase; [5]
  IC50: 0.62 ± 0.24 µM
[2]; [6]
  IC50: > 100 µM
[2]; [7]
  inhibition of EGF receptor (in words): not significantly inhibited
[3]
  p210^bcr-abl kinase activity of ODN treated K562 cells: significantly decreased
[3]; listed as BCR-AS
  p210^bcr-abl kinase activity of ODN treated K562 cells: reduction
p210^bcr-abl kinase [4]; 1 μM BCR-AS, lower concentrations of enolase, three minute reaction
  p210^bcr-abl autophosphorylation in the presence of enolase: only a slight effect
p210^bcr-abl kinase [4]; 1 μM ODN1
  nature of the enzymatic inhibition with respect to ATP: purely noncompetitive
p210^bcr-abl kinase [4]; [5]
  IC50: 0.52 ± 0.12 µM
p210^bcr-abl kinase [4]; ODN 1 μM, phosphorothioate capped, mean ± SE of three experiments
  Percent Remaining Activity of p210^bcr-abl kinase relative to control: 36 ± 1.2%
p210^bcr-abl kinase [4]
  inhibition of p210^bcr-abl kinase activity in vitro (in words): markedly inhibited
p210^bcr-abl kinase [4]; listed as ODN1 phosphorothioate capped
  inhibition of p210^bcr-abl kinase activity in vitro (in words): intermediate potencies
p210^bcr-abl kinase [4]; various [γ-32P]ATP concentrations, presence or absence of 1 μM ODN1, double-reciprocal plot
  Ki: 0.52 ± 0.12 µM
MAP kinase
  IC50: > 100 µM
Src kinase; [6]
  IC50: > 100 µM
Src kinase; [7]
  inhibition of src (in words): not significantly inhibited
